MIC data for five compounds are collected here from DBAASP.

≈ marks a conversion by molar mass, not a printed value.

Test systems include Candida krusei ATCC 6258; Fusarium graminearum; Candida albicans DBFIQ 1; Candida albicans PEEC 2; Escherichia coli; Staphylococcus aureus; Bacillus cereus DSM 4222; Bacillus cereus DSM 4312; Listeria monocytogenes.
Common to all, as to assay: ≥ marks a high value that may be exact or a test limit, other limits are often not marked, values filed in µg/mL are converted to µM
The subject of test [1] is Candida albicans ATCC 10231.
Test [2] relates to Candida glabrata ATCC 2001.
Test [3] has as its system Candida parapsilosis ATCC 90018.
Test [4] relates to Candida tropicalis ATCC 750.
Test [5] concerns Escherichia coli ATCC 25922.
Test [6] deals with Pseudomonas aeruginosa ATCC 27853.
The test system of test [7] is Staphylococcus aureus ATCC 29213.
In test [8] the test system is Candida tropicalis DBFIQ 3.
Test [9] relates to Enterococcus faecalis ATCC 29212.
Test [10] relates to Escherichia coli ATCC 35218.
The subject of test [11] is Staphylococcus aureus ATCC 25923.
Test [12] concerns Staphylococcus aureus BSF FBCB1313.
Test [13] deals with Bifidobacterium longum subsp. infantis.
Test [14] concerns Acinetobacter baumannii ATCC 17978.
The test system of test [15] is Bacillus subtilis ATCC 6051.
In test [16] the test system is Bacillus subtilis ATCC 6633.
Test [17] deals with Clostridium perfringens ATCC 13124.
The test system of test [18] is Clostridium perfringens DSM 11784.
Test [19] deals with Enterobacter cloacae ATCC 13047.
In test [20] the test system is Enterococcus faecium ATCC 19434.
The test system of test [21] is Escherichia coli ATCC 35150.
Test [22] deals with Escherichia coli ATCC 8739.
Test [23] concerns Escherichia coli NCTC 13452.
Test [24] deals with Escherichia coli NEB5alpha.
The subject of test [25] is Escherichia coli O157:H7 ATCC 35150.
Test [26] relates to Klebsiella pneumoniae ATCC 13883.
For test [27], the system named is Listeria monocytogenes ATCC 19115.
Test [28] deals with Listeria monocytogenes SLCC 5581.
Test [29] relates to Pseudomonas aeruginosa ATCC 10145.
Test [30] has as its system Pseudomonas fluorescens DSM 50124.
Test [31] concerns Pseudomonas putida DSM 291.
The test system of test [32] is Salmonella enterica subsp. enterica serovar Typhimurium ATCC 14028.
Test [33] has as its system Salmonella enterica subsp. enterica serovar Typhimurium DSM 554.
Test [34] relates to Salmonella typhimurium DSM 19587.
In test [35] the test system is Staphylococcus aureus ATCC 16558.
In test [36] the test system is Staphylococcus aureus ATCC 3300.
For test [37], the system named is Staphylococcus aureus ATCC 43300.
The subject of test [38] is Staphylococcus aureus ATCC 6538.
Test [39] deals with Staphylococcus aureus DSM 2569.
Test [40] relates to Staphylococcus aureus RN4220.

As a reminder, the MIC is the lowest concentration found to suppress growth. A low value points to inhibition by little substance. Consider `CC[C@H](C)[C@H](NC(=O)CN)C(=O)N[C@@H](CC(C)C)C(=O)N[C@@H](CC(=O)O)C(=O)N[C@H](C(=O)N[C@@H](CCCCN)C(=O)N[C@@H](CC(N)=O)C(=O)N[C@@H](CCCCN)C(=O)N[C@H](C(=O)N[C@@H](CO)C(=O)N[C@@H](CC(N)=O)C(=O)N[C@@H](CC(C)C)C(=O)N[C@@H](Cc1ccccc1)C(=O)N[C@@H](CCCCN)C(=O)N[C@@H](CCCCN)C(=O)N[C@H](C(=O)N[C@@H](CCCCN)C(N)=O)[C@@H](C)CC)C(C)C)[C@@H](C)CC` [GILDIKNKVSNLFKKIK], for which the minimum inhibitory concentration (MIC) in test [1] is 250 µM (≈ 489 µg/mL); in test [2] it was at least 500 µM; in the test with Candida krusei ATCC 6258, at least 62.5 µM; in test [3] it was at least 500 µM; in test [4] it was at least 500 µM; in [5] it was over 130 µM. For the same compound, the MIC in [6] and in [7] was over 130 µM throughout.
Consider `CC(C)C[C@H](NC(=O)[C@@H](N)CCCCN)C(=O)N[C@@H](CS)C(=O)N[C@@H](CCC(=O)O)C(=O)N[C@@H](CCCCN)C(=O)N1CCC[C@H]1C(=O)N[C@@H](CO)C(=O)N[C@@H](CCCCN)C(=O)N[C@H](C(=O)N[C@@H](Cc1c[nH]c2ccccc12)C(=O)N[C@@H](Cc1ccccc1)C(=O)NCC(=O)N[C@@H](CC(N)=O)C(=O)N[C@@H](CS)C(=O)NCC(=O)N[C@@H](CC(N)=O)C(=O)N1CCC[C@H]1C(=O)N[C@@H](CCCN=C(N)N)C(=O)N[C@@H](Cc1cnc[nH]1)C(=O)N[C@@H](CS)C(=O)NCC(=O)O)[C@@H](C)O` [KLCEKPSKTWFGNCGNPRHCG], for which the MIC against Fusarium graminearum is at least 32 µM.
Take `CC(C)C[C@H](NC(=O)[C@H](CCCCN)NC(=O)[C@H](CCCCN)NC(=O)[C@H](Cc1ccccc1)NC(=O)[C@H](CC(C)C)NC(=O)[C@H](CCCCN)NC(=O)[C@H](CCCCN)NC(=O)[C@H](Cc1ccccc1)NC(=O)[C@H](CC(C)C)NC(=O)[C@@H](N)CCCCN)C(=O)N[C@@H](Cc1ccccc1)C(=O)N[C@@H](CCCCN)C(N)=O` [KLFKKLFKKLFK]: the MIC against Candida albicans DBFIQ 1 is at least 40.8 µM; with Candida albicans PEEC 2 it was at least 40.8 µM; in [8], at least 81.7 µM; in test [9], 5.1 µM (≈ 7.99 µg/mL); in test [10] it was 5.1 µM (≈ 7.99 µg/mL); in test [6] it was 2.6 µM (≈ 4.07 µg/mL). The MIC was 2.6 µM (≈ 4.07 µg/mL) in test [11] and 10.2 µM (≈ 16 µg/mL) in test [12].
With `CC[C@H](C)[C@H](NC(=O)[C@@H]1CCCN1C(=O)[C@H](CC(N)=O)NC(=O)[C@H](Cc1cnc[nH]1)NC(=O)[C@@H](NC(=O)[C@@H]1CCCN1C(=O)[C@H](C)NC(=O)[C@@H](N)CC(C)C)C(C)C)C(=O)O` [LAPVHNPI], the MIC in [13] was at least 3490 µM; against Escherichia coli, 3490 µM (≈ 3000 µg/mL); against Staphylococcus aureus, 3490 µM (≈ 3000 µg/mL).
Take `CC[C@H](C)[C@H](NC(=O)[C@@H](N)CCCN=C(N)N)C(=O)N[C@@H](CCCCN)C(=O)N[C@H](C(=O)N[C@H](C(=O)N[C@H](C(=O)N[C@@H](CO)C(=O)N[C@@H](Cc1ccccc1)C(=O)N[C@@H](CC(=O)O)C(=O)N[C@@H](CC(C)C)C(=O)N1CCC[C@H]1C(=O)N[C@@H](C)C(=O)N[C@@H](CC(C)C)C(=O)N[C@@H](CCCN=C(N)N)C(=O)N[C@@H](Cc1c[nH]c2ccccc12)C(=O)N[C@@H](CC(C)C)C(=O)N[C@@H](CCCCN)C(=O)N[C@@H](CC(C)C)C(=O)O)[C@@H](C)O)C(C)C)[C@@H](C)O` [RIKTVTSFDLPALRWLKL]: the MIC was at least 464 µM in test [14]; at least 1000 µM with Bacillus cereus DSM 4222; at least 1000 µM in the test with Bacillus cereus DSM 4312; 15.6 µM (≈ 33.7 µg/mL) in test [15]; at least 1160 µM in test [16]; at least 125 µM in [17]. Further, the MIC in test [18] is at least 1000 µM; in test [19], at least 464 µM; in test [20], at least 464 µM; in [21], at least 500 µM; in test [22], at least 371 µM; in test [23], at least 125 µM. For the same compound, the MIC is at least 62.5 µM in test [24]; at least 371 µM in test [25]; over 464 µM in the test with Escherichia coli; at least 464 µM in [26]; at least 1160 µM in [27]; at least 500 µM in test [28]. In addition, the MIC against Listeria monocytogenes is at least 250 µM; in test [29], at least 464 µM; in [30], at least 500 µM; in [31] it was at least 125 µM; in [32], over 464 µM; in test [33], at least 1000 µM. Moreover, the MIC in test [34] is at least 1000 µM; in [35], at least 1160 µM; in test [11] it was over 464 µM; in test [36] it was at least 500 µM; in test [37] it was over 464 µM; in test [38], over 1160 µM. Also, the MIC in test [39] was at least 500 µM; in test [40], at least 1160 µM.
